Laboratory results taken from patent US5437980A, “Phenanthridium dye staining of nucleic acids in living cells” (Molecular Probes, Inc., priority 1993, dated 1995).
“Also recorded” adds a separate entry of the source.

Experiments:
Saccharomyces = assay: Staining of yeast (Example 5); format: cell-based; conditions: 10 μM dye, 30 min, 37° C.
Procedure: Yeast cells are washed by centrifugation and then resuspended in a solution of 2% glucose and 10 mM Na-HEPES, pH 7.4 to a cell density of between 5×10^5 and 2×10^6 cells/mL optical density at 410 nm (previously calibrated with YPD agar plate colony counts). Sufficient 10 mM stock solution of the 5-DAPP/LIVE dye in DMSO is added to effect a final concentration of 10 μM of the dye in the medium. The suspension is incubated for 30 min at 37° C. then 15 μL are placed between a coverglass and the microscope slide. The cellular fluorescence is observed using fluorescein (long-pass emission) or rhodamine filter sets.

[1] = tested on: peripheral blood lymphocytes; assay: Staining of peripheral blood lymphocytes, fluorometer (Example 11); format: cell-based, goat; conditions: on the scale of seconds
Procedure: Peripheral blood lymphocytes (PBL) are isolated from fresh heparinized goat blood and resuspended in buffer consisting of 135 mM NaCl, 5 mM KCl, 20 mM HEPES, 1 mM CaCl2, 1 mM MgCl2, pH 7.4 (HBSS+). The cells are resuspended to 10^6 mL (as determined by direct microscopic count using a standard hemocytometer) in a final volume of 3 mL in the above buffer in a quartz cuvette. 5-DAPP/LIVE dye stocks are prepared to final concentrations of 2 mM in DMSO. 3 μL of the octidium dye stock solution is injected into the cuvette to a final concentration of 2 μM. In a fluorometer, the sample is excited at 520 nm and fluorescence emission is monitored at 600 nm over the time required for the fluorescence signal to become stable. Hexidium, butidium and ethidium bromide are injected into separate samples of PBL to determine the relative rates of uptake for these stains. The volume of dye solution added to the cuvette is corrected by a factor relating the absorbance of the dye to the absorbance of a 2 mM octidium solution.

living cells = assay: Entry into / staining of living cells, general; format: cell-based; conditions: general summary
[2] = tested on: rainbow trout gonad cells (RTG-2); assay: Staining followed by fixation (Example 13); format: cell-based; conditions: 1 μM, 30 min, room temperature
Procedure: Adherent rainbow trout gonad cells (RTG-2) are grown at 20° C. until about 25% confluent. The cells are labeled by incubation in HBSS- containing 1 μM hexidium at room temperature for 30 min. The cells are subsequently washed free of hexidium with HBSS-, followed by phosphate-buffered saline, pH 7.4 (PBS), and fixed in 2% formaldehyde in PBS for 15 min at room temperature. Cell nuclei and cytoplasmic fluorescence are observed in the fluorescence microscope using fluorescein long-pass or rhodamine filter sets.

Bacillus cereus = assay: Relative rate and extent of dye uptake into living Bacillus cereus (Example 2, FIG. 1); format: cell-based; conditions: 2 μM dye, 23° C.
Procedure: FIG. 1. Relative Uptake of Dyes into Living Cells. Uptake of ethidium, butidium, hexidium and octidium by Bacillus cereus as described in Example 2.
Bacillus cereus is grown in nutrient broth to log phase, washed by centrifugation, and resuspended in water to a density of 5×10^6 cfu/mL (as determined in Example 1). One centimeter pathlength acrylic cuvettes containing 3 mL of cell suspension are placed in a fluorescence spectrophotometer equipped with a temperature regulated cuvette holder and magnetic stirrer. The suspensions are brought to 23° C. prior to dye addition. To a cuvette of 3 mL bacteria suspension is added 3 μL of 2 mM dye stock solutions in DMSO to give a final dye concentration of 2 μM to produce the maximum attainable fluorescence/cell at the 600 nm emission wavelength (determined as in Example 1). The peak fluorescence excitation and emission wavelengths are determined by scanning the spectrum of the dye in suspensions of Bacillus cereus incubated for 30 min with the dye. Fluorescence intensity of the suspensions is measured using 488 nm excitation and 600 nm emission wavelengths. Sampling of fluorescence is carried out at 5 or 10 Hz until the fluorescence signal appears to stabilize.

gram-positive bacteria = conditions: mild conditions; application Ser. No. 08/047,683; cited from earlier work
[3] = tested on: 3T3 mouse fibroblast cells; assay: Pulse-chase staining of lysosomal compartments in cultured mammalian cells (Example 10); format: cell-based
Procedure: 3T3 mouse fibroblast cells are grown on coverslips in calf serum-supplemented DMEM medium. The coverslips of cells are washed using the HBSS+, then hexidium solutions are prepared to final concentrations of 2 μM and 0.2 μM in HBSS+. The cells are incubated in the dye-containing medium for 2 min at room temperature then they are washed in HBSS +and viewed by epifluorescence microscopy using a long-pass fluorescein or a rhodamine filter set.

mushroom spores = assay: Staining of mushroom spores by fluorescence microscopy (Example 4); format: cell-based, agaric; conditions: 10-20 μM dye, 30 min, room temperature
Procedure: Spores are rinsed from the gills on the underside of the cap of an agaric using a stream of distilled water. The spores are concentrated by centrifugation for 30 sec at 10,000 rpm in a microcentrifuge then a minimal volume of a 10-20 μM solution of the 5-DAPP/LIVE dye in distilled water is added. The suspension is incubated with the dye for 30 min at room temperature then a 15 μL aliquot of the suspension is mounted on between a coverglass and the slide for viewing in the presence of the dye. The cellular fluorescence is observed on a Zeiss Axioplan fluorescence microscope using fluorescein (long:pass emission) or rhodamine filter sets.

[4] = tested on: free-living ciliate and flagellate protozoans; assay: Staining of protozoa (Example 7); format: cell-based; conditions: 1 μL of 10 mM dye in 1 mL culture, 10 min, ambient temperature
Procedure: 1 μL of 10 mM the 5-DAPP/LIVE dye stock is added to 1 mL of protozoan culture. The medium is incubated for 10 min at ambient temperature. 15 μL of this preparation is mounted with dye between a coverglass and the slide. Using this procedure, the nuclei of most cells of the free-living ciliate and flagellate protozoans are stained under these conditions.

tissue culture cells = assay: Entry into / staining pattern of tissue culture cells; format: cell-based
Text: In some tissue culture cells, the pattern of staining is different from that observed in plant cells or bacteria. In the former case, cells are usually loaded with a brief pulse of dye, followed by a chase of buffered saline solution. These cells show a pattern of staining first in numerous intracellular compartments; e.g. lysosomes. In addition to staining these organelles first, the dyes also undergo a spectral shift to shorter wavelengths when associated with this "early-labeled compartment." If the same cells are exposed to pulses of higher concentrations of the 5-DAPP/LIVE dyes, the staining appears in the mitochondria (tubular structures that are labeled with rhodamine 123) and then, finally, in the nucleus, where it stains the nucleoli very brightly. Nucleoli are the most prominently stained area of higher eukaryotic cells, while the nuclei and cytosol usually stain in a hazy or punctate pattern in these cells. […] In plant tissues distinct nuclei tend to label uniformly, but there is frequently significant binding of the dye to cell walls. The plant cells are usually dark except for cell walls and nuclei. The characteristic binding morphology obtained using the 5-DAPP/LIVE dyes thus makes them useful in certain circumstances for identifying the type of cell in a mixed population of cells.

CCCCCC[n+]1c(-c2ccccc2)c2cc(N)ccc2c2ccc(N)cc21 [hexidium]
staining distribution and intensity (Saccharomyces): less of a hazy cytoplasmic stain and more distinct nuclei
distribution of dye into nucleus of lymphocytes [1]: virtually instantaneous
membrane permeability (living cells): marked enhancement of membrane permeability in all systems
entry into / staining of live cells (living cells; several types of cells): enters many types of live cells quickly and is bright
difference between live loaded cells and cells fixed with 2% formaldehyde [2]: essentially no difference
extent of loading (Bacillus cereus): optimal
rate of dye loading (Bacillus cereus; 488 nm excitation, 600 nm emission): increases with carbon chain length
staining of live gram-positive bacteria (gram-positive bacteria): significantly greater
labeling after brief pulse-chase loading ([3]; 0.2 μM, 2 min, room temperature): labeling of punctate structures in the cell cytoplasm; also recorded: green
labeling after brief loading ([3]; 2 μM, 2 min, room temperature): additional organellar staining, which is apparently mitochondrial
effect of chloroquine preincubation on staining ([3]; 300 μM chloroquine): reduces the amount of cytoplasmic staining
staining of nuclei ([3]; under both conditions (0.2 and 2 μM)): stained slightly, but only in the nucleolar regions
staining of spores (in words) (mushroom spores): stains all spores brightly; also recorded: stained most effectively
staining of nuclei of protozoans [4]: slightly better than octidium
staining of cells loaded to equilibrium / staining pattern (tissue culture cells): both intense cytoplasmic and nuclear staining
